These results are taken from patent publication US20140127185A1, “METHODS AND COMPOSITIONS USING NEUROPROTECTIVE STEROIDS AND THROMBOLYTIC AGENTS” (priority 2012, published 2014).

For data set [1], the system named is bEND3 cells. The experiment in a line: Transendothelial electrical resistance (TEER) after hypoxia/reperfusion (H/R). Type of data set: cell-based, mouse. The following applies: tPA 20 μ/ml; 6 hours hypoxia, 3 hours reoxygenation. As to the method: (§1) An immortalized mouse brain endothelial cell line (bEND 3) is purchased from American Type Culture Collection (ATCC, VA, USA) and cultured in Dulbecco's modified Eagle Medium (DMEM, ATCC) supplemented with 10% fetal bovine serum (ATCC). bEND 3 cells are seeded onto the luminal side of a filter (0.4 μm pore size; Corning, Lowell, MCA) coated with fibronectin (5 μg/ml) in 12-well plates for a transendothelial electrical resistance (TEER) test; and in 100-mm dishes for Western blot studies. Cell cultures are incubated at 37° C. in a 5%/95% mixture of CO2 and atmospheric air, and the medium is replaced every 3 days.
The electrical resistance across the membrane are measured using an Millicell ERS Voltohmmeter (Millipore, Billerica, Mass.). The extracellular matrix-treated Transwell inserts are placed in 12-well plates containing culture medium and then used to measure the background resistance. The resistance measurements of these blank filters are then subtracted from those of filters with cells. Values are shown as Q. based on culture inserts.
To mimic ischemia-like conditions in vitro, immortalized mouse brain endothelial (bEND3) cells were exposed to 6 hours of hypoxia and 3 hours of reoxygeneation with or without the administration of tPA at a dose of 20 μ/ml. Reoxygenation was initiated by adding glucose (4.5 g/L)-containing phenol red-free DMEM for 3 hours at 37° C. in 95% air and 5% CO2. The cells were treated with various concentrations progesterone for 24 hours before hypoxia/reperfusion (H/R). BBB integrity was evaluated by transendothelial membrane electrical resistance (TEER) measurement, MMP-9 activity, and the alteration of tight junction proteins following in vitro H/R injury.

Data set [2] deals with claudin-5. The experiment in a line: Tight junction protein Western blot in vivo (ischemic cortices): claudin-5. Also on record: species or system rat. The settings on record: 24 hours after ischemia, compared to stroke without tPA / with tPA. How it is done:
Peri-infarct cortical tissue is processed for protein analysis. Tissues are homogenized in T-per (Pierce, Rockford, Ill.) containing protease inhibitor cocktail (P8340, Sigma). Homogenates are centrifuged for 15 minutes at 13,000 g. 40 μg of total protein is separated on 8-12% gel and transferred onto polyvinylidene difluoride (Millipore, Mass., USA; PVDF) membranes at 300 mA for 2 hours. To measure the level of immunoglobulin, the membranes were incubated overnight at 4° C. with anti Rat IgG conjugated to biotin. bEND 3 cells are subjected to hypoxia/reperfusion for 9 hours and then lysed on ice in 100 μl of RIPA buffer. Cell lysated are boiled and then electrophoresed in 12% SDS-PAGE acrylamide gels, transferred onto PVDF membranes, and incubated for 1 hour in TBS-T (tris-buffered saline and 0.1% Tween 20) containing 5% bovine serum albumin (BSA). Membranes are then incubated overnight at 4° C. with primary antibodies against occludin (Invitrogen, Calif., USA; 1:1000), claudin-5 (Invitrogen; 1:1000), and ZO-1 (Invitrogen; 1:1000), washed in TBS-T, and incubated for 1 hour at room temperature with corresponding peroxidase-conjugated secondary antibodies (1:5000; KPL, Gaithersburg, Md.). All blots are stripped and re-incubated with β-actin antibodies (1:5000, Sigma) as a loading control. […] Intensity of the bands is measured by an Image Gauge version. […]
(In western blotting, separated proteins are transferred to a membrane and probed.)

Data set [3] has as its system claudin-5. Nature of the data set: Claudin-5 in H/R-treated bEND3 cells (Western blot). Type of data set: cell-based, mouse. The following applies: tPA with H/R. As to the method:
as §1
Peri-infarct cortical tissue is processed for protein analysis. Tissues are homogenized in T-per (Pierce, Rockford, Ill.) containing protease inhibitor cocktail (P8340, Sigma). Homogenates are centrifuged for 15 minutes at 13,000 g. […] Intensity of the bands is measured by an Image Gauge version. […]
(§2) To mimic ischemia-like conditions in vitro, immortalized mouse brain endothelial (bEND3) cells were exposed to 6 hours of hypoxia and 3 hours of reoxygeneation with or without the administration of tPA at a dose of 20 μ/ml. […] BBB integrity was evaluated by transendothelial membrane electrical resistance (TEER) measurement, MMP-9 activity, and the alteration of tight junction proteins following in vitro H/R injury.

In data set [4] the test system is MMP-9. The experiment in a line: MMP-9 levels in bEND3 cells exposed to H/R and tPA. In kind it is cell-based, mouse. The following applies: bEND3 cells exposed to H/R and tPA for 9 hours; progesterone pretreatment. As to the method: The bEnd 3 cells grown to confluence on coverslips are subjected to the indicated treatments. For […], cells are washed three times with PBS, fixed in 3% paraformaldehyde for 10 minutes, permeabilized with 02% Triton X-100 in PBS for 10 minutes and blocked with 10% BSA and 0.1% Triton X-100 in PBS for 1 hour. After washing with PBS, the monolyers are incubated with a primary antibody for occludin (Invitrogen, 1:200) and MMP-9 (Abeam, Mass., USA, 1:200) overnight at 4° C. The cell monolayers are then washed 3 times with PBS and incubated with Alexa Fluor 488 anti-rabbit and orange anti-mouse (Molecular Probes, Eugene, Oreg.) for 1 hour. After washing in PBS, the coverslips are mounted on glass slides with Vectasheild with dapi (Vecta Laboratories).
as §2
To directly determine MMP-9 activity after ischemia, proteolytic activity of MMP-9 was measured using a fluorescence resonance energy transfer peptide. […]

Data set [5] deals with rats with MCAO induced by homologous blood clots. The experiment in a line: Delayed tPA to cause hemorrhage: embolic MCAO model of hemorrhagic transformation. In kind it is in vivo, rat. The following applies: recombinant tPA 10 mg/kg through the tail vein at 4.5 hours post MCAO-induction. From the text:
A focal thromboembolic model of cerebral ischemia is induced in rats by middle cerebral artery occlusion (MCAO) via the fibrin-rich clots technique under isoflurane anesthesia. Surgical anesthesia is induced with isoflurane (5% induction, 2% maintenance, […]). Rats are cannulated with a femoral artery catheter for measurement of arterial blood gases, pH (Ciba-Corning 248 pH/blood gas analyzer), blood glucose, hematocrit and mean arterial blood pressure. The body temperature of the animals is maintained at […] with a heating pad controlled by rectal thermistors. A closed cranial window is made in the right parietal skull (2 mm posterior, 6 mm lateral to bregma) for laser doppler probe placement. The rats are mounted on a modified stereotaxic frame equipped with a facemask. The right common carotid artery (CCA), the right internal carotid artery (ICA) and the right external carotid artery (ECA) are exposed by a ventral incision in throat. After surgical preparation of the right CCA and ligation of the pterygo-palatine artery, a PE10 catheter is inserted into the ECA. The tip of the catheter is placed close to the carotid bifurcation. To achieve thromboembolic occlusion of the right middle cerebral artery, 12 medium-sized fibrin rich clots suspended in phosphate with phosphate buffered saline (0.3 ml) are injected by a 1 ml syringe connected to the catheter. […]

As to “tPA: serum protease acting specifically on serum plasminogen; also known as alteplase, available commercially as Activase”, in data set [1], the “TEER under H/R conditions” value was “significantly decreased”. Further, the “Lower molecular weight 17-kDa claudin-5 fragments” value in data set [2] was “increase”. Besides, the “Expression of 23-kDa claudin-5 (Western blot)” value in data set [3] is recorded as “markedly decreased”. Besides, the MMP-9 levels entry in data set [4] is recorded as “increased”. Also, the “Hemispheric enlargement and hemorrhage” value in data set [5] is “significant hemispheric enlargement and hemorrhage”.
